Columns and labels:
P2 receptors = system: P2 receptors; design: method as in Robson et al., 2006; conditions: ref Robson et al., 2006; cited from earlier work
human CD39 = molecular target: T1, human CD39 (Homo sapiens, UniProt P49961); experiment: Fluorescence capillary electrophoresis assay for CD39; type: biochemical; design: Human umbilical cord membrane preparations (250 ng) natively expressing high amounts of CD39; from tissue; host or cells: human umbilical cord membranes; conditions: fluorescent substrate PSB-017621A 0.5 µM; human umbilical cord membrane preparation; n = 3; Cheng-Prusoff; read-out: Ki ± SEM
T1 sequence (P49961 1-510): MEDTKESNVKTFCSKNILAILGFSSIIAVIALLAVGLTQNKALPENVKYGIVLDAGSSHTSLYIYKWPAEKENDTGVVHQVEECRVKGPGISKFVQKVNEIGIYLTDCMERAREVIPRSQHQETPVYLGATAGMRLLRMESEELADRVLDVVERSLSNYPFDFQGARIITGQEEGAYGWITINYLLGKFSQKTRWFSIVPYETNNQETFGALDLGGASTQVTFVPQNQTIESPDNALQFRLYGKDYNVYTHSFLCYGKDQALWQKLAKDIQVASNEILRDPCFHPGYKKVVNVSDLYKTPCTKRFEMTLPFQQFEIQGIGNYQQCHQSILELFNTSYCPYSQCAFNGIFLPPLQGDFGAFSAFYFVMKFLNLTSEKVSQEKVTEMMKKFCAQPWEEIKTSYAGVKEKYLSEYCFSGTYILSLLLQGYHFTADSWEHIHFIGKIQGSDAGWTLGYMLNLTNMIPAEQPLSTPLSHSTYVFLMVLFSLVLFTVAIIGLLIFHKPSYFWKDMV
Experimental: They were minced and homogenized with a polytron in 95 mM NaCl, 0.1 mM phenylmethylsulfonyl fluoride (PMSF), and 45 mM Tris solution, pH 7.6. […] The pellets were resuspended in 5 mM Tris buffer solution, pH 8.0 and 10% glycerol. All purification steps were performed at 4°C. The preparations were kept at −80°C.
For inhibition screening, three independent experiments were performed. […] The reaction buffer contained 10 mM HEPES, 2 mM CaCl2, 1 mM MgCl2, pH 7.4. The samples were incubated at 37°C for 4 min, and the enzymatic reaction was terminated by heating at 90°C for 5 min. The solution was then diluted 1:20 with reaction buffer to perform separation of nucleotides by capillary electrophoresis (CE) followed by laser-induced fluorescence (LIF) detection. […] Three independent experiments were performed, and curves were calculated by GraphPad Prism 8 software (GraphPad software, San Diego, CA, USA).
Analysis was carried out using a P/ACE MDQ capillary electrophoresis system (Beckman Instruments, Fullerton, CA, USA). The separation was performed in a polyacrylamide-coated capillary [30 cm (10 cm effective length) × 50 µm (id), × 360 µm (od)]. Before each run, the capillary was rinsed with the background electrolyte [50 mM phosphate buffer (pH 6.5)] for 1 min at 30 psi. Samples were electrokinetically injected by applying a voltage of -6 kV for 30 s at the capillary outlet, and the fluorescent nucleotide derivatives were separated by voltage application of -15 kV. […] Data collection and peak area analysis were performed by the P/ACE MDQ software 32 KARAT obtained from Beckman Coulter (Fullerton, CA, USA).

| Compound | effect on P2 receptors (P2 receptors) | Ki (human CD39) [µM] |
| --- | --- | --- |
| CCN(CC)c1ncnc2c1ncn2[C@@H]1O[C@H](COP(=O)(O)OP(=O)(O)C(Br)(Br)P(=O)(O)O)[C@@H](O)[C@H]1O [ARL67156, (Dibromo((((((2R,3S,4R,5R)-5-(6-(diethylamino)-9H-purin-9-yl)-3,4-dihydroxytetrahydrofuran-2-yl)methoxy)-(hydroxy)-phosphoryl)oxy)(hydroxy)phosphoryl)methyl)-phosphonic Acid, reference compound] | no significant effect | – |
| CCCCNc1nc2c(NC)ncnc2n1[C@@H]1O[C@H](COP(=O)(O)OP(=O)(O)C(Br)(Br)P(=O)(O)O)[C@@H](O)[C@H]1O [Compound 33, (Dibromo((((((2R,3S,4R,5R)-5-(8-(butylamino)-6-(methylamino)-9H-purin-9-yl)-3,4-dihydroxy-tetrahydrofuran-2-yl)methoxy)(hydroxy)phosphoryl)oxy)-(hydroxy)phosphoryl)methyl)-phosphonic Acid] | – | 1.51 ± 0.4 |
